{"source": "patent US6177475A", "about": "“Methods of using integrin modulators for treatment of inflammation” (priority 1997, dated 2001)", "key": {"[1]": {"test_system": "lymphocyte infiltration into the pancreata", "test": "Spontaneous development of autoimmune diabetes in NOD mice (lymphocyte infiltration of pancreata)", "format": "in vivo, Nonobese diabetic (NOD) mice", "conditions": "0.3 mg/kg i.p. every other day, 9 weeks", "excerpt": "(§1) Nonobese diabetic (NOD) mice are characterized by spontaneous development of insulitis (similar to human insulin-dependent diabetes) and sialoadenitis (similar to Sjogren's disease). The development of autoirmune inflammation in these animals involves several integrin receptors, including VLA-4, CR3, and LFA-1 (CD11a/CD18). Lymphocyte infiltration into the pancreata is mediated primarily by VIA-4, whereas the predominant mechanism of lymphocyte recruitment into the salivary glands involves LFA-1.\n(§2) NOD mice (age, 3 to 4 weeks old; average body weight, 10 g) were divided into three groups. Experimental animals received intraperitoneal injections of disintegrins (0.3 mg/kg per animal every other day) for 9 weeks. Control mice were administered with the vehicle.\n(§3) The mice were sacrificed and subjected to autopsy. The pancreata and salivary glands were removed and frozen (-70° C.). Thin sections (5 micrometer thick) of these organs were fixed in acetone, stained with hematoxylin and eosin, and evaluated microscopically for lymphocyte infiltration (Tables 6 and 7)."}, "[2]": {"test_system": "lymphocyte infiltration into the salivary glands", "test": "Spontaneous development of autoimmune sialoadenitis in NOD mice (lymphocyte infiltration of salivary glands)", "format": "in vivo, Nonobese diabetic (NOD) mice", "conditions": "0.3 mg/kg i.p. every other day, 9 weeks", "excerpt": "as §1, §2, §3"}, "[3]": {"test_system": "MT-2 cells / K562/VCAM-1 cells (HTLV-I)", "test": "Syncytium formation of HTLV-I-infected MT-2 cells with K562/VCAM-1 cells", "format": "cell-based", "conditions": "3.4 micromoles per liter; higher concentrations not tested", "excerpt": "MT-2 cells harbor the complete genome of human T cell lymphotropic virus type 1 (HTLV-I), and they transmit the virus to susceptible uninfected cells in cocultures. The transmission manifests itself as fusion of MT-2 cells with the uninfected cells, followed by syncytium formation. K562 cells transfected with VCAM-1, a ligand of the integrin VIA-4, were used as a fusion partner for MT-2 cells. MT-2 and K562/VCAM-1 cells were washed and resuspended in complete RPMI medium at a density of 2×10^6 /ml. MT2 cells were seeded into flat-bottom 96-well microtiter plates (100 microliters per well). Serial dilutions of Ajoene or of the disintegrin kistrin (final concentration) were introduced into the wells, and the plate was incubated for 30 min prior to addition of 100 microliters of K562/VCAM-1 cells. The plates were then incubated for 4 h before scoring syncytium formation."}, "[4]": {"conditions": "pancreas, (+) 1-3 infiltrated islets"}, "[5]": {"conditions": "pancreas, (-) no infiltrating lymphocytes"}, "[6]": {"conditions": "(+) 1-3 small foci involving only one duct"}, "[7]": {"conditions": "(+++) 2 or more foci involving several ducts"}, "[8]": {"conditions": "(-) no infiltrating lymphocytes"}}, "data": [{"substance": "Kistrin", "values": [{"measurement": "development of large infiltrates in pancreatic islets", "setting": "[1]", "value": "completely prevented the development of large infiltrates"}, {"measurement": "proportion of animals with mild infiltration of pancreatic islets", "setting": "[1]", "value": "increased the proportion of animals with mild infiltration of pancreatic islets"}, {"measurement": "Number of mice with infiltration score (+)", "setting": "[1]; [4]", "value": 2, "unit": "mice"}, {"measurement": "Percentage of mice with infiltration score (+)", "setting": "[1]; [4]", "value": 40, "unit": "%"}, {"measurement": "Number of mice with infiltration score (++)", "setting": "[1]; pancreas, (++) 4 islets with moderate infiltration and/or 1-2 islets with large infiltrates", "value": 0, "unit": "mice"}, {"measurement": "Number of mice with infiltration score (+++)", "setting": "[1]; pancreas, (+++) 3 or more large infiltrates", "value": 0, "unit": "mice"}, {"measurement": "Number of mice with infiltration score (-)", "setting": "[1]; [5]", "value": 3, "unit": "mice"}, {"measurement": "Percentage of mice with infiltration score (-)", "setting": "[1]; [5]", "value": 60, "unit": "%"}, {"measurement": "Number of mice with infiltration score (+)", "setting": "[2]; [6]", "value": 2, "unit": "mice"}, {"measurement": "Percentage of mice with infiltration score (+)", "setting": "[2]; [6]", "value": 40.0, "unit": "%"}, {"measurement": "Number of mice with infiltration score (++)", "setting": "[2]; (++) small foci and/or 1 large focus involving several ducts", "value": 0, "unit": "mice"}, {"measurement": "Number of mice with infiltration score (+++)", "setting": "[2]; [7]", "value": 1, "unit": "mice"}, {"measurement": "Percentage of mice with infiltration score (+++)", "setting": "[2]; [7]", "value": 20.0, "unit": "%"}, {"measurement": "Number of mice with infiltration score (-)", "setting": "[2]; [8]", "value": 2, "unit": "mice"}, {"measurement": "Percentage of mice with infiltration score (-)", "setting": "[2]; [8]", "value": 40.0, "unit": "%"}, {"measurement": "inhibition of syncytium formation", "setting": "[3]", "value": "~ 40%"}]}]}
